Test results taken from patent publication US20240245647A1, “ISOMEROHYDROLASE INHIBITOR FOR TREATMENT OF ATROPHIC FORM OF AGE-RELATED MACULAR DEGENERATION AND STARGARDT DISEASE” (The Trustees of Columbia University in the City of New York, priority 2021, published 2024).

Tests used:
RPE65 [1] = target: T1, RPE65 (Gallus gallus, UniProt Q9YGX2); assay: Liposome-based isomerase assay with purified RPE65; type: biochemical, chicken
T1 sequence (Q9YGX2 1-533): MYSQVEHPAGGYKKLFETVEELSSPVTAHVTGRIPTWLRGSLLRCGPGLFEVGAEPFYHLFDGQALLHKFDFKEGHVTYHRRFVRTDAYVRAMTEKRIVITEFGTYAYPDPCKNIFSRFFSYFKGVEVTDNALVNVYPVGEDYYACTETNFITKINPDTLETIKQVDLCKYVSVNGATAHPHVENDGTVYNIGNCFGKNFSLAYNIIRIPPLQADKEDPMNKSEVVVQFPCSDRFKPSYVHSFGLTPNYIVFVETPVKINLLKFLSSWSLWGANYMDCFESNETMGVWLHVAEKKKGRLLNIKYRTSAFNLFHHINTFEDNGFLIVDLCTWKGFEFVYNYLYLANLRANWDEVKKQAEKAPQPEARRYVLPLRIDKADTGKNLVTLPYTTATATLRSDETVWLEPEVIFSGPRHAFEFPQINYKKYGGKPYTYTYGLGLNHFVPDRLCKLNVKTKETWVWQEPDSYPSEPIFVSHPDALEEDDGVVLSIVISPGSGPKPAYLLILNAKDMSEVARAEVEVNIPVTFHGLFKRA
Description: FIG. 3. Uncompetitive inhibition of RPE65 isomerase by RPE65-61. All-trans-retinyl ester incorporated in liposomes was used as a substrate for purified RPE65 in the isomerase assay. (FIG. 3A) HPLC elution profile of the reaction products without inhibitor; (FIG. 3B) with 180 nM of RPE65-61; Peak 1, retinyl esters; Peak 2, 11-cis-retinol; Peak 3, all-trans-retinol. (FIG. 3C) Lineweaver-Burk plot of 11-cis-retinol generated by RPE65. Liposomes with increasing concentrations (S) of all-trans-retinyl palmitate were incubated with 25 μg of purified chicken RPE65 in the absence (♦) or in the presence of RPE65-61 (180 nM) (▪).
All-trans [11,12-^3H]-retinol (1 mCi/ml, 45.5 Ci/mmol, Perkin Elmer, Boston, MA) in N,N-dimethyl formamide (DMF) was used as the substrate for the isomerohydrolase assay. Bovine RPE microsomes were prepared as described previously. […] The upper layer was collected and the generated retinoids were analyzed by normal phase HPLC as described (Moiseyev, G. et al. 2003). […] The isomerohydrolase activity was calculated from the area of the 11-cis retinol peak using Radiomatic 610TR software (Perkin Elmer, Boston, MA) with synthetic 11-cis [^3H]-retinol as a standard. […] The retinoid profile after completion of the reaction was analyzed by HPLC where the peaks were identified by co-elution with retinoid standards. […]

RPE65 [2] = target: T2, RPE65 (Mus musculus, UniProt Q91ZQ5); assay: Chromophore regeneration after photobleach, HPLC retinoid profile; type: in vivo, BALB/cJ mice
T2 construct: from tissue; host or cells: eyes of living BALB/cJ mice
T2 sequence (Q91ZQ5 1-533): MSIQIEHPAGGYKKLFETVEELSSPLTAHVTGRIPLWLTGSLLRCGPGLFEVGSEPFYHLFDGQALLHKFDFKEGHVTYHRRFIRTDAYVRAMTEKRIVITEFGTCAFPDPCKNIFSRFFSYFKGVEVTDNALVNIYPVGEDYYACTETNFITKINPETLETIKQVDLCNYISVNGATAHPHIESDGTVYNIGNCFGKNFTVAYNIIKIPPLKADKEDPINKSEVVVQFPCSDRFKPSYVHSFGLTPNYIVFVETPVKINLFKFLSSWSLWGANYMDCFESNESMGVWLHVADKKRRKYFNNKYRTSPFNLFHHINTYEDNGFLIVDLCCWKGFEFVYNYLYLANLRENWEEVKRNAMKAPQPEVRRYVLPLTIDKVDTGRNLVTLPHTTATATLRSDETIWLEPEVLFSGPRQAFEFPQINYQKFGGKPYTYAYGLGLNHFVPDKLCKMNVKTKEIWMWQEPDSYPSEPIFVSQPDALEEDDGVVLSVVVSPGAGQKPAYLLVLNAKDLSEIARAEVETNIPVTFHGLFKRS
Description: FIG. 4. Systemic injection of inhibitor RPE65-61 delays chromophore regeneration in BALB/cJ mice. Dark-adapted mice were injected with varying amounts of RPE65-61, and subjected to light-adaptation under 5000 lx of fluorescent light for 30 min. The eyes were harvested for HPLC retinoid profiling after 30 min of dark-adaptation, to measure levels of (FIG. 4A) 11-cis-RAL, (FIG. 4B) all-trans-RAL, and (FIG. 4C) all-transretinyl ester. (FIG. 4D) schematic representation of experimental design for RPE65-61 in vivo. Student's t-test. *P<0.05, **<0.01 and ***<0.001. (Mean±SEM).
Dark-adapted or light-exposed mice were sacrificed, and their eyes enucleated under dim red light. The whole eyes were homogenized with a glass grinder in lysis buffer [10 mM NH2OH, 50% ethanol, […] 2-(N-morpholino) ethanesulfonic acid, pH 6.5], incubated for 1 hr, and retinoids were extracted with hexane.
The ability of RPE65-61 to inhibit RPE65 in vivo was also investigated by determining chromophore regeneration after bleaching with 5,000 lux fluorescent light for 30 min. (FIG. 4).

[3] = Sequestration of all-trans-retinal (atRAL) in vitro; conditions: 100 μM compound, equimolar atRAL, 30 min
Description: Test compounds (100 μM) were incubated with equimolar amounts of all-trans-retinal for 30 min. The UV-vis spectra were collected and the concentration of all-trans-retinal was assessed based on the 370 nm absorbance. (FIG. 11A) Graph bars show mean atRAL levels normalized to DMSO; error bars show SD; one-way ANOVA with Holm-Sidak post-hoc test was used for statistical analysis; *P<0.05; ****P<0.0001.

Q: Which “mode of RPE65 inhibition” value (RPE65 [1]; liposome-based assay with recombinant RPE65) does the source give for `N=S(=O)(CCN)c1cccc(OCC2CCCCC2)c1` (racemic) [RPE65-61, (±)-(2-aminoethyl) (3-(cyclohexylmethoxy)phenyl) (imino)-λ^6-sulfanone] here?
A: The value was “uncompetitive inhibitor”.

Q: What about the Ki (RPE65 [1]; liposome-based assay, 180 nM inhibitor) of the same molecule?
A: The Ki was 0.15 µM.

Q: And the “chromophore regeneration after photobleach” value (RPE65 [2]; 0.5, 1 or 2 mg/kg injected, 5,000 lux 30 min)?
A: The value was “delayed chromophore regeneration after photobleach in a dose-dependent manner”.

Q: And the “inhibition of 11-cis-retinal regeneration after photobleaching compared with CU-239” value (RPE65 [2]; mouse, in vivo)?
A: The value was “higher potency”.

Q: What about the “retinyl ester levels in treated mice” value (RPE65 [2]; mouse, in vivo) of the same molecule?
A: Its value is “accumulate higher levels of retinyl esters”.

Q: What about the atRAL reduction [3] of the same molecule?
A: The atRAL reduction was 80%.
